In patent US20120237937A1, “METHODS TO DETECT CANCER IN ANIMALS” (UNIVERSITY OF LOUISVILLE RESEARCH FOUNDATION, INC., priority 2009, published 2012):

How the values were obtained:
[1] = tested on: lung tumor; assay: Response of lung lesions of patient 25b to Erlotinib; type: in vivo, human; conditions: Stage I
Text: The horizontal dotted line represents a ratio of 1. […] See also, Fan et al. (2009) Exp. Molec. Pathol. 87, 83-86.

[2] = NMR 13C-isotopomer profiling of TCA extracts of paired non-cancerous and cancerous lung tissues; conditions: in vivo
Protocol: Lung cancer patients were recruited based on the criteria of surgical eligibility and no history of diabetes. Each patient was consented in accordance with the U.S. HIPAA regulations. The following patient protocol was approved by the Internal Review Board at the University of Louisville. Ten grams uniformly ^13C labeled glucose ([U-^13C]-Glc or ^13C6-Glc or ^13C6-Glucose) in sterile saline solution were infused i.v. over a 30 min time period into each patient in the pre-op room approximately 3 or 12 hr prior to resection. Whole blood samples were collected into a vacutainer containing the anticoagulant K3EDTA or K3-EDTA before and after [U-^13C]-Glc infusion as well as after the surgery. Additional blood samples were collected 3 and 12 hr after the [U-^13C]-Glc infusion for the 12 hr treatment cases. […] The blood samples were placed on ice immediately after collection and centrifuged at 4° C. at 3,500×g for 15 min to recover the plasma fraction. All blood samples were aliquoted and flash-frozen in liquid N2 within 30 min of collection. Potassium EDTA was used as an anti-coagulant to minimize metabolic artifacts associated with anti-coagulation; it also served to remove the influence of interfering cations such as paramagnetic Fe^3+ and Cu^2+ for NMR analysis.
All timings from first incision to cutting arteries and veins to the lung were recorded so that the period of ischemia could be determined immediately after tissue resection, excess blood was blotted from the tissue, and small pieces of non-cancerous and tumor tissue were cut by the surgeon and freeze-clamped in liquid N2 within 5 minutes of removal from the chest cavity. The freezing process arrested metabolic changes almost instantaneously. […] Non-cancerous tissue was removed at least 2 cm from the tumor margin and certified to be tumor-free by trained pathologists. Subsequent pathological evaluation also confirmed tumor status and provided the tumor stage. All samples were stored at −80° C. until further processing for analysis.
Frozen tissue samples were pulverized into <10 μm particles in liquid N2 using a Spex freezer mill (Spex CertiPrep, Inc., Metuchen, N.J.) to maximize efficiency for subsequent extraction while maintaining biochemical integrity. An aliquot of the frozen powder was lyophilized before extraction for metabolites.
Water-soluble or polar metabolites were extracted from lyophilized tissue powders (4-48 mg) in ice-cold 10% trichloroacetic acid (TCA) (v/w minimum 40/1) while leaving proteins, nucleic acids, and polysaccharides behind, as described previously (Kim et al. Antioxidants & Redox Signaling 2001, 3:361-373). The extraction was performed twice for quantitative recovery. An aliquot (150 μl) of plasma samples were made to final 10% TCA concentration to precipitate proteins and recover metabolites in the supernatant. TCA was then removed from tissue or plasma extracts by lyophilization. The dry pellet was dissolved in nanopure water and two small aliquots were lyophilized for silylation and GC-MS analysis while the remaining bulk was passed through a Chelex 100 resin column (Bio-Rad Laboratories, Inc., Hercules, Calif.) to neutralize and remove interfering multivalent cations for NMR analysis.
The ^1H reference standard, DSS (2,2-Dimethyl-2-silapentane-5-sulfonate sodium salt) was added (30 or 50 nmoles) to the TCA extracts of tissue or plasma samples, respectively. […]

[3] = Time course of plasma 13C-glucose and 13C-lactate in SCID mice by NMR; type: in vivo, SCID mouse
Protocol: (§1) A 20% solution of glucose in normal saline was sterile-filtered. 100 μL of this solution, or a 1:10 dilution (2%) were injected into the tail vein of a restrained mouse without anesthesia.
Approximately 50 μL samples of blood were taken intraorbitally at timed intervals, chilled and separated into plasma and whole blood by centrifugation at 4° C. at 3,000 g for 5 minutes. Plasma was flash frozen in liquid N2 for storage prior to workup.
Twenty to thirty μl of plasma was made to 10% trichloroacetic acid (TCA) and centrifuged at 4° C., at ≧22,000 g for 20 minutes to remove denatured proteins. The polar supernatant was lyophilized to remove TCA before preparation for NMR and GC-MS analysis.
(§2) NMR spectra were recorded at 14.1 T on a Varian Inova spectrometer equipped with a 5 mm inverse triple resonance cold probe, at 20° C. 1D NMR spectra were recorded with an acquisition time of 2 s and a recycle time of 5 sec. Concentrations of metabolites and ^13C incorporation were determined by peak integration of the ^1H NMR spectra referenced to the DSS methyl groups, with correction for differential relaxation, as previously described (See, Lane et al. (2008) Biophysical Tools for Biologists. 84: 541-588; Fan et al. (2008) Progress in NMR Spectroscopy 52: 69-117; Lane et al. (2007) Metabolomics 3: 79-86.). ^1H Spectra were typically processed with zero filling to 131 k points, and apodized with an unshifted Gaussian and a 0.5 Hz line broadening exponential.
The two SCID mice were injected via the tail vein with […] [U-^13C]-glucose. Blood was sequentially taken intraorbitally, and analyzed by NMR as described in the NMR Spectroscopy section. To assess the optimal time for metabolizing the ^13C6-glucose in mice, plasma samples were taken at 15-minute intervals and processed for NMR analysis. […] The initial glucose enrichment ranged from 30 to >50% depending on the size of the mouse, which means that the plasma glucose concentration was roughly doubled immediately after the bolus [U-^13C]-glucose injection. The % enrichment for glucose decreased rapidly and asymptotically within one hour, presumably via the normal homeostatic mechanism. […] The initial rate of ^13C lactate production was approximately equal to the initial rate of glucose consumption, but then decayed after about 20 minutes.

[4] = Time course analysis of 13C-metabolites in plasma by 1H NMR after [U-13C]-Glc infusion; type: in vivo, human; conditions: 3 hrs after [U-13C]-glucose infusion, lung cancer patients
Protocol: The extraction was performed twice for quantitative recovery.
See Fan et al. (2008) Prog. NMR Spectrosc. 52, 69-117; Fan (1996) Prog. NMR Spectrosc 28, 161-219.
In order to determine the optimal time to sample tissue after infusing [U-^13C]-Glc into lung cancer patients, we used ^1H NMR to analyze the profiles of ^13C-labeled products in plasma samples at several time points. Other than the administered tracer itself ([U-^13C]-Glc), the major ^13C-labeled metabolite in plasma was lactate. Plasma samples were collected 0, 3, and 12 hr after [U-^13C]-Glc infusion, as described in the Patient Treatment and Sample Collection section above. Unlabeled glucose and lactate concentrations were quantified by 1-D ^1H NMR using DSS as the calibration standard. Their % ^13C enrichment was determined from the respective ^13C satellite peaks in 1-D ^1H NMR spectra. Panels A-D illustrate the time course changes in glucose and lactate concentrations as well as their % ^13C enrichment. […] The chemical shifts of lactate and Ala reflected the acidic pH of the TCA extract.

[5] = Isotopic enrichment in SCID mouse tissue lactate and glucose by 1D 1H NMR; type: in vivo; conditions: Lac at C3, Glc at C1α
Protocol: as §1
Mice were sacrificed at different times post glucose injection, and the following organs were dissected sequentially: lung, heart, liver, kidney, brain, spleen, and thigh muscle. Dissected tissue was flash frozen in liquid N2 within 1 minute of killing the animal.
Frozen tissues were ground in liquid N2 to <10 μm particles in a 6750 Freezer/Mill (Retsch, Inc., Newtown, Pa.) and extracted for soluble and lipidic metabolites as follows. Up to 20 mg of frozen tissue powder in 15 ml polypropylene conical centrifuge tube (Sarstedt, Newton, N.C.) containing 3 mm diameter glass beads was vigorously mixed with 2 ml of cold acetonitrile (mass spectrometry grade, stored at −20° C.) to denature proteins, followed by addition of 1.5 ml nanopure water, and 1 ml HPLC-grade chloroform (Fisher Scientific). The mixture was shaken vigorously until achieving a milky consistency followed by centrifugation at 3,000 g for 20 minutes at 4° C. to separate the polar (top), lipidic (bottom), and tissue debris layers (interface). The polar and lipidic layers were recovered sequentially and the remaining cell debris was extracted again with 0.5 ml chloroform:methanol:butylated hydroxytoluene (BHT) (2:1:1 mM) which was pooled with the lipidic fraction. All three fractions were vacuum-dried in a speedvac device (Vacufuge, Eppendorf, New York, N.Y.) and/or by lyophylization. The dry weight of tissue debris was obtained for normalization of metabolite content. The polar extracts were redissolved in 100% D2O containing 30 nmol perdeuterated DSS (2,2-dimethyl-2-silapentane-5-sulfonate, Cambridge Isotope Laboratories, Andover, Mass.) as internal chemical shift and concentration reference for NMR measurement.
as §2
The same extracts from FIG. 9 were analyzed by NMR to complement the GC-MS analysis. The ^13C enrichment into glucose/glucose-6-phosphate and lactate was determined by 1D ^1H NMR. The enrichments at 15 and 30 minutes post infusion were substantial in all tissues, and peak lactate enrichments differed according to the metabolic activity or glucose uptake rates of the different tissues (Table 7).
Lac measured at C3, G1c measured at C1α by NMR

[6] = GC-MS quantification of total and 13C-enriched metabolites in paired normal and cancerous lung tissues

For `C#Cc1cccc(Nc2ncnc3cc(OCCOC)c(OCCOC)cc23)c1` [Erlotinib], the response of lesion ([1]; lower lobe (LL) lesion) was “responded” and the response of lesion ([1]; upper lobe (UL) lesion) was “did not”.

With `O[13CH2][13C@H]1O[13CH](O)[13C@H](O)[13C@@H](O)[13C@@H]1O` (stereo partly shown) [[U-^13C]-Glucose, uniformly ^13C labeled glucose, reference compound] the “% 13C enrichment of metabolite in lung tissue” value [2] was 15.5%, the “apparent half-life in plasma” value ([3]; mouse, in vivo) was 16 to 22 min and the “initial % 13C enrichment in plasma” value ([3]; mouse, in vivo) was 65%.

With `CC(O)C(=O)O` (stereo not shown) [lactate] the “% 13C enrichment in plasma” value [4] was 5-22%, the “peak % 13C enrichment in plasma” value ([3]; SCID mice, after [U-13C]-glucose bolus) was 8-12% and the “time of peak 13C enrichment in plasma” value ([3]; SCID mice, post injection) was 15 to 20 min. The “% 13C isotopic enrichment in tissue” value ([5]; Heart, 15 min) was 25%, the “% 13C isotopic enrichment in tissue” value ([5]; Heart, 30 min) was 33% and the “% 13C isotopic enrichment in tissue” value ([5]; Kidney, 15 min) was 19%. The “% 13C isotopic enrichment in tissue” value ([5]; Kidney, 30 min) was 17%, the “% 13C isotopic enrichment in tissue” value ([5]; Liver, 15 min) was 11% and the “% 13C isotopic enrichment in tissue” value ([5]; Liver, 30 min) was 13%. For the same molecule, the “% 13C isotopic enrichment in tissue” value ([5]; Lung N, 15 min) was 20%, the “% 13C isotopic enrichment in tissue” value ([5]; Lung N, 30 min) was 17% and the “% 13C isotopic enrichment in tissue” value ([5]; Thigh muscle, 15 min) was 17%. The “% 13C isotopic enrichment in tissue” value ([5]; Thigh muscle, 30 min) was 11%, the “metabolite content of lung tissue” value ([6]; patient #6 (sqC, grade II), cancer tissue) was 29.55 μmole/g dry weight and the “metabolite content of lung tissue” value ([6]; patient #6 (sqC, grade II), normal tissue) was 2.66 μmole/g dry weight. For the same molecule, the “metabolite content of lung tissue” value ([6]; patient #7 (adenoC, grade II), cancer tissue) was 10.62 μmole/g dry weight, the “metabolite content of lung tissue” value ([6]; patient #7 (adenoC, grade II), normal tissue) was 11.80 μmole/g dry weight and the “metabolite content of lung tissue” value ([6]; patient #8 (sqC, grade II-III), cancer tissue) was 17.72 μmole/g dry weight. The “metabolite content of lung tissue” value ([6]; patient #8 (sqC, grade II-III), normal tissue) was 9.44 μmole/g dry weight, the “metabolite content of lung tissue” value ([6]; patient #9 (sqC, grade II), cancer tissue) was 25.31 μmole/g dry weight and the “metabolite content of lung tissue” value ([6]; patient #9 (sqC, grade II), normal tissue) was 19.52 μmole/g dry weight. The “metabolite content of lung tissue” value ([6]; patient #10 (sqC, grade III), cancer tissue) was 29.67 μmole/g dry weight and the “metabolite content of lung tissue” value ([6]; patient #10 (sqC, grade III), normal tissue) was 8.27 μmole/g dry weight.
